The text below walks through data of publication PMC6245281, “Cytotoxic Steroidal Saponins from the Flowers of Allium leucanthum” (Molecules, 2008).

Assay type in all cases: cell-based
The test system of assay [1] is colon adenocarcinoma (DLD-1) cell line. Kind of assay: Cytotoxicity assay (resazurin reduction test), DLD-1. The settings on record: Homo sapiens, DLD-1 cells, 48 h incubation, read-out: IC50 (μM ± SD) DLD-1. On the procedure:
(§1) Lung carcinoma (A549), colon adenocarcinoma (DLD-1) and normal skin fibroblast (WS1) human cell lines were purchased from the American Type Culture Collection (ATCC). All cell lines were cultured in minimum essential medium containing Earle’s salts and L-glutamine (Mediatech Cellgro, VA), to which 10% fetal bovine serum (Hyclone), vitamins (1X), penicillin (100 I.U./mL), streptomycin (100 μg/ml), essential amino acids (1X) and sodium pyruvate (1X) (Mediatech Cellgro, VA) were added. Cells were kept at 37°C in a humidified environment containing 5% CO2.
(§2) Exponentially growing cells were plated at a density of 5 × 10^3 cells per well in 96-well microplates (Costar, Corning inc.) in 100 µl of culture medium and were allowed to adhere for 16 hours before treatment. Then, 100 µl of increasing concentrations of extract or pure compounds dissolved in culture medium and DMSO (Sigma-Aldrich) were added. The final concentration of solvent in the culture medium was maintained at 0.25% (v/v) to avoid solvent toxicity. Cells were incubated for 48 h in the absence or in the presence of extract. Cytotoxicity was assessed using the resazurin reduction test as described by O’Brien) Fluorescence was measured on an automated 96-well Fluoroskan Ascent Fl plate reader (Labsystems) using an excitation wavelength of 530 nm and an emission wavelength of 590 nm. Cytotoxicity was expressed as the concentration of extract or compound inhibiting cell growth by 50% (IC50).
A general note: The colour change of resazurin is a common sign of viable cells or microbes.

The test system of assay [2] is lung carcinoma (A549) cell line. Put plainly: Cytotoxicity assay (resazurin reduction test), A549. Particulars: Homo sapiens, A549 cells, 48 h incubation, read-out: IC50 (μM ± SD) A549. On the procedure:
as §1, §2

Assay [3] concerns normal skin fibroblast (WS1) cell line. Kind of assay: Cytotoxicity assay (resazurin reduction test), WS1. Particulars: Homo sapiens, WS1 healthy cells, 48 h incubation, read-out: IC50 (μM ± SD) WS1. The procedure:
as §1, §2

What is called IC50 is the concentration that gives 50% inhibition. For `CC1CCC2(OC1)OC1CC3C4CC(O)C5CC(OC6OC(CO)C(OC7OC(CO)C(O)C(OC8OCC(O)C(O)C8O)C7OC7OC(CO)C(O)C(O)C7O)C(O)C6O)C(O)CC5(C)C4CCC3(C)C1C2C` (centres unmarked) [Aginoside (3), aginoside], the concentration for half-maximal inhibition (IC50) in assay [1] stood at 7.9 ± 0.5 µM; in assay [2], 5.8 ± 0.9 µM; in assay [3], 3.6 ± 0.2 µM.
`C[C@@H]1CC[C@@]2(OC1)O[C@H]1C[C@H]3[C@@H]4C[C@@H](O)[C@H]5C[C@@H](O[C@@H]6O[C@H](CO)[C@H](O[C@@H]7O[C@H](CO)[C@@H](O)[C@H](O)[C@H]7O[C@@H]7O[C@H](CO)[C@@H](O)[C@H](O)[C@H]7O)[C@H](O)[C@H]6O)[C@H](O)C[C@]5(C)[C@H]4CC[C@]3(C)[C@H]1[C@@H]2C` [Compound 6, (25R)-5α-spirostane-2α,3β,6β-triol 3-O-β-D-glucopyranosyl-(1→2)-β-D-glucopyranosyl-(1→4)-β-D-galactopyranoside]: the IC50 in assay [1] is 22 ± 2 µM; in assay [2], 22 ± 2 µM; in assay [3], 14.5 ± 0.5 µM.
`COc1cc([C@@H]2c3cc4c(cc3[C@@H](O[C@@H]3O[C@@H]5CO[C@@H](C)O[C@H]5[C@H](O)[C@H]3O)[C@H]3COC(=O)[C@H]23)OCO4)cc(OC)c1O` [Etoposide, reference compound]: the IC50 was 4.8 ± 0.8 µM in assay [1] and 1.1 ± 0.1 µM in assay [2].
`CC1CCC2(OC1)OC1CC3C4CC(O)C5CC(OC6OC(CO)C(OC7OC(CO)C(O)C(OC8OC(CO)C(O)C(O)C8O)C7OC7OC(CO)C(O)C(O)C7O)C(O)C6O)CCC5(C)C4CCC3(C)C1C2C` (centres unmarked) [Eruboside B (2), eruboside B]: the IC50 in assay [1] worked out at 8.2 ± 0.4 µM; in assay [2], 5.3 ± 0.5 µM; in assay [3] it was 3.6 ± 0.2 µM.
Take `C[C@@H]1CC[C@@]2(OC1)O[C@H]1C[C@H]3[C@@H]4C[C@@H](O)[C@H]5C[C@@H](O[C@@H]6O[C@H](CO)[C@H](O[C@@H]7O[C@H](CO)[C@@H](O)[C@H](O[C@@H]8OC[C@@H](O)[C@H](O)[C@H]8O)[C@H]7O[C@@H]7O[C@H](CO)[C@@H](O)[C@H](O)[C@H]7O)[C@H](O)[C@H]6O)CC[C@]5(C)[C@H]4CC[C@]3(C)[C@H]1[C@@H]2C` [Compound 4, (25R)-5α-spirostane-3β,6β-diol 3-O-β-D-glucopyranosyl-(1→2)-[β-D-xylopyranosyl-(1→3)]-β-D-glucopyranosyl-(1→4)-β-D-galactopyranoside]: the IC50 turned out to be 13 ± 1 µM in assay [1], 9 ± 1 µM in assay [2] and 3.1 ± 0.1 µM in assay [3].
Consider `CC1CCC2(OC1)OC1CC3C4CC(O)C5CC(OC6OC(CO)C(OC7OC(CO)C(O)C(OC8OC(CO)C(O)C(O)C8O)C7OC7OC(CO)C(O)C(O)C7O)C(O)C6O)C(O)CC5(C)C4CCC3(C)C1C2C` (centres unmarked) [Yayoisaponin C (1), yayoisaponin C], for which the IC50 in assay [1] was found to be 5.6 ± 0.2 µM; in assay [2], 3.7 ± 0.7 µM; in assay [3] it was 3 ± 0.2 µM.
As for `C[C@@H]1CC[C@@]2(OC1)O[C@H]1C[C@H]3[C@@H]4C[C@@H](O)[C@H]5C[C@@H](O[C@@H]6O[C@H](CO)[C@H](O[C@@H]7O[C@H](CO)[C@@H](O)[C@H](O[C@@H]8O[C@H](CO)[C@@H](O)[C@H](O)[C@H]8O)[C@H]7O[C@@H]7O[C@H](CO)[C@@H](O)[C@H](O[C@@H]8O[C@H](CO)[C@@H](O)[C@H](O)[C@H]8O)[C@H]7O)[C@H](O)[C@H]6O)[C@H](O)C[C@]5(C)[C@H]4CC[C@]3(C)[C@H]1[C@@H]2C` [Leucospiroside A (5), (25R)-5α-spirostane-2α,3β,6β-triol 3-O-β-glucopyranosyl-(1→3)-β-glucopyranosyl-(1→2)-[β-glucopyranosyl-(1→3)]-β-glucopyranosyl-(1→4)-β-galactopyranoside], the IC50 in assay [1] stood at 7.2 ± 0.1 µM; in assay [2] it was 5 ± 0.1 µM; in assay [3] it was 4.55 ± 0.07 µM.
As to `O=c1[nH]cc(F)c(=O)[nH]1` [5-fluorouracil, reference compound], the IC50 in assay [1] was 11 ± 2 µM; in assay [2], 48 ± 18 µM; in assay [3], 20 ± 2 µM.
The corresponding values for `C[C@@H]1CC[C@@]2(OC1)O[C@H]1C[C@H]3[C@@H]4C[C@@H](O)[C@H]5C[C@@H](O[C@@H]6O[C@H](CO)[C@H](O[C@@H]7O[C@H](CO)[C@@H](O)[C@H](O[C@@H]8O[C@H](CO)[C@@H](O)[C@H](O)[C@H]8O)[C@H]7O[C@@H]7O[C@H](CO)[C@@H](O)[C@H](O[C@@H]8O[C@H](CO)[C@@H](O)[C@H](O)[C@H]8O)[C@H]7O)[C@H](O)[C@H]6O)CC[C@]5(C)[C@H]4CC[C@]3(C)[C@H]1[C@@H]2C` [Compound 7, (25R)-5α-spirostane-3β,6β-diol 3-O-β-D-glucopyranosyl-(1→3)-β-D-glucopyranosyl-(1→2)-[β-D-glucopyranosyl-(1→3)]-β-D-glucopyranosyl-(1→4)-β-D-galactopyranoside] are 8.9 ± 0.2 µM, 7.8 ± 0.4 µM and 7.7 ± 0.2 µM.
